The NIST ThermoML archive (doi:10.1016/j.jct.2011.09.022)

Settings: Liquid, Closed cell (Static) method

CC#N [acetonitrile]
Settings	vapor or sublimation pressure [kPa]
278.72 K	4.443
278.88 K	4.539
278.98 K	4.513
279.81 K	4.732
280.27 K	4.859
281.91 K	5.339
283.17 K	5.637
283.56 K	5.838
283.81 K	5.916
284.56 K	6.102
285.7 K	6.473
286.17 K	6.59
286.61 K	6.754
288.72 K	7.498
288.8 K	7.559
288.83 K	7.594
289.39 K	7.802
290.09 K	8.032
290.6 K	8.302
291.36 K	8.598
292.48 K	9.163
293.21 K	9.408
293.92 K	9.82
294.4 K	10.03
295.33 K	10.43
295.94 K	10.77
296.44 K	11.02
297.48 K	11.6
298.3 K	12.05
298.67 K	12.17
299.42 K	12.61
301.19 K	13.61
302.14 K	14.18
304.16 K	15.57
305.01 K	16.1
306.04 K	16.96
306.9 K	17.53
307.95 K	18.22
309.92 K	19.85
310.71 K	20.49
311.79 K	21.38
311.88 K	21.55
312.81 K	22.5
313.77 K	23.42
314.79 K	24.17
315.71 K	25.1
315.79 K	25.15
316.63 K	26.11
317.72 K	27.21
318.66 K	28.27
319.69 K	29.39
320.67 K	30.52
321.65 K	31.73
322.54 K	32.95
322.56 K	32.94
322.64 K	33.19
323.64 K	34.49
324.59 K	35.65
325.58 K	37

C1CCOC1 [tetrahydrofuran]
Settings	vapor or sublimation pressure [kPa]
275.99 K	7.099
276.53 K	7.556
277.76 K	7.839
278.19 K	8.328
279.41 K	8.614
279.86 K	9.036
280.16 K	8.932
281.95 K	9.957
283.07 K	10.55
283.15 K	10.32
283.36 K	10.9
284.88 K	11.68
286.55 K	12.44
288.5 K	13.79
289 K	14
289.66 K	14.48
291.04 K	15.65
292.31 K	16.65
293.3 K	17.43
296.05 K	19.72
296.84 K	20.37
297.09 K	20.65
298.15 K	21.5
298.72 K	22.24
300.57 K	23.84
301.73 K	25.28
302.96 K	26.62
303.23 K	26.87
304.04 K	27.79
305.35 K	29.43
306.54 K	30.77
308.07 K	32.49
310.2 K	35.55
310.86 K	36.65
311.9 K	38.54
313.12 K	40.13
313.18 K	40.09
315.86 K	44.65
317.71 K	47.86
319.58 K	51.31
321.57 K	55.34
323.59 K	59.46
